The supplement of paper PMC10331698
± gives the standard deviation of the averaged measurements.

How the values were obtained:
Assay in all cases: level (log10 ratio to DMSO vehicle control); higher = higher biomarker level / cell amount than vehicle control
Details in all cases: in DMSO
[1] = compound: OCC(F)(F)OC(F)(F)C(F)(F)OC(F)(F)CO [1H,1H,8H,8H-Perfluoro-3,6-dioxaoctane-1,8-diol]
Description: (§1)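 BioMAP Diversity Plus panel of 12 human primary cell co-culture systems (3C, 4H, LPS, SAg, BT, BF4T, BE3C, CASM3C, HDF3CGF, KF3CT, MyoF, Mphg). Compounds were added 1 h before stimulation and left for 24 h (MyoF 48 h; BT 72 h for soluble read-outs or 6 d for IgG). Biomarkers were read by ELISA, cytotoxicity by SRB, PBMC viability and proliferation by Alamar Blue. Each well value was divided by the mean of 8 DMSO control wells on the same plate and log10 transformed; duplicate blinded samples were tested at 4 concentrations.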

[2] = compound: C=CC(=O)OCC(F)(F)C(F)(F)C(F)(F)C(F)(F)C(F)(F)C(F)(F)C(F)(F)F [1H,1H-Perfluorooctyl acrylate]
Description: as §1

[3] = compound: O=C(O)C(F)(F)C(F)(F)OC(F)(F)F [Perfluoro-3-methoxypropanoic acid]
Description: as §1

[4] = compound: O=S(=O)(O)C(F)(F)C(F)(F)C(F)(F)C(F)(F)C(F)(F)C(F)(F)F [Perfluorohexanesulfonic acid]
Description: as §1

[5] = compound: FC(F)(F)C(F)(F)C(F)(F)C(F)(F)C(F)(F)C(F)(F)C(F)(F)C(F)(F)CCS [2-(Perfluorooctyl)ethanthiol]
Description: as §1

[6] = compound: COC(=O)CCC(F)(F)C(F)(F)C(F)(F)C(F)(F)F [Methyl 2H,2H,3H,3H-perfluoroheptanoate]
Description: as §1

[7] = compound: C=CC(F)(F)C(F)(F)C(F)(F)C(F)(F)C(F)(F)C(F)(F)C(F)(F)C(F)(F)C=C [1,8-Divinylperfluorooctane]
Description: as §1

| Test System | level (log10) ([1]; 6700 nM) | level (log10) ([1]; 20000 nM) | level (log10) ([1]; 60000 nM) | level (log10) ([2]; 6700 nM) | level (log10) ([2]; 20000 nM) | level (log10) ([2]; 60000 nM) | level (log10) ([3]; 6700 nM) | level (log10) ([3]; 20000 nM) | level (log10) ([3]; 60000 nM) | level (log10) ([4]; 6700 nM) | level (log10) ([4]; 20000 nM) | level (log10) ([4]; 60000 nM) | level (log10) ([5]; 6700 nM) | level (log10) ([5]; 20000 nM) | level (log10) ([6]; 6700 nM) | level (log10) ([6]; 20000 nM) | level (log10) ([6]; 60000 nM) | level (log10) ([7]; 6700 nM) | level (log10) ([7]; 20000 nM) |
| --- | --- | --- | --- | --- | --- | --- | --- | --- | --- | --- | --- | --- | --- | --- | --- | --- | --- | --- | --- |
| 4H:CD62P/P-selectin | 0.0225 ± 0.091 | 0.034 ± 0.055 | 0.0615 ± 0.046 | 0.038 ± 0.05 | -0.0155 ± 0.018 | -0.047 ± 0.023 | -0.004 ± 0.0057 | 0.005 ± 0.011 | 0.0065 ± 0.029 | 0.008 ± 0.058 | 0.0555 ± 0.043 | 0.112 ± 0.066 | 0.019 ± 0.0071 | -0.017 | -0.0325 ± 0.071 | -0.017 ± 0.064 | 0.0135 ± 0.053 | -0.009 ± 0.018 | -0.035 ± 0.064 |
| BF4T:IL-1alpha | -0.004 ± 0.0042 | -0.01 ± 0.0042 | 0.012 ± 0.0028 | -0.0075 ± 0.00071 | 0.0045 ± 0.0021 | -0.0125 ± 0.013 | -0.0055 ± 0.03 | -0.021 ± 0.0042 | 0.004 ± 0.045 | -0.0055 ± 0.005 | -0.025 ± 0.0042 | 0.0095 ± 0.00071 | -0.036 ± 0.018 | -0.023 ± 0.017 | -0.0085 ± 0.00071 | -0.0185 ± 0.018 | 0 ± 0.021 | -0.0175 ± 0.0021 | 0.01 ± 0.025 |
| BF4T:MMP-9 | -0.026 ± 0.047 | -0.0145 ± 0.025 | 0.01 ± 0.037 | 0.0065 ± 0.028 | 0.0035 ± 0.016 | 0.015 ± 0.033 | -0.002 ± 0.0028 | -0.0125 ± 0.011 | 0.032 ± 0.013 | 0.006 ± 0.065 | 0.0115 ± 0.073 | 0.0135 ± 0.056 | -0.047 ± 0.0099 | -0.057 ± 0.013 | 0.007 ± 0.034 | 0.0165 ± 0.047 | 0.012 ± 0.055 | -0.004 ± 0.071 | -0.0115 ± 0.033 |
| 3C:CXCL9/MIG | -0.0025 ± 0.005 | -0.004 ± 0.0071 | 0.0015 ± 0.011 | 0.0015 ± 0.0035 | -0.002 ± 0.014 | 0.0115 ± 0.005 | 0.0025 ± 0.0021 | -0.0065 ± 0.0078 | 0.0115 ± 0.00071 | 0.0015 ± 0.0035 | 0.0035 ± 0.0092 | 0.007 ± 0.0085 | 0.002 | 0.0115 ± 0.005 | -0.011 ± 0.011 | -0.0115 ± 0.012 | -0.0055 ± 0.015 | -0.0085 ± 0.0064 | 0.0025 ± 0.0092 |
| LPS:sPGE2 | -0.0235 ± 0.019 | -0.023 ± 0.045 | -0.0195 ± 0.00071 | -0.045 ± 0.017 | -0.0805 ± 0.0035 | -0.109 ± 0.027 | -0.0295 ± 0.03 | 0.0045 ± 0.052 | -0.0185 ± 0.011 | 0.0115 ± 0.0064 | -0.007 ± 0.0099 | -0.106 ± 0.028 | -0.017 ± 0.025 | -0.022 ± 0.011 | 0.014 ± 0.033 | 0.0395 ± 0.0078 | -0.0125 ± 0.04 | -0.005 ± 0.034 | -0.035 ± 0.075 |
| SAg:CD38 | -0.006 ± 0.02 | -0.0105 ± 0.013 | -0.0015 ± 0.0021 | -0.016 ± 0.018 | -0.009 ± 0.016 | -0.02 ± 0.014 | -0.007 ± 0.0042 | 0.003 ± 0.0085 | -0.0005 ± 0.012 | -0.006 ± 0.014 | 0.004 ± 0.038 | -0.023 ± 0.014 | -0.036 ± 0.057 | -0.0245 ± 0.042 | -0.018 ± 0.017 | -0.0015 ± 0.018 | -0.009 ± 0.0028 | -0.009 ± 0.016 | -0.0055 ± 0.0092 |
| SAg:CCL2/MCP-1 | 0.0085 ± 0.005 | -0.0105 ± 0.012 | 0.011 ± 0.037 | -0.014 ± 0.0071 | -0.025 ± 0.0071 | 0.001 ± 0.024 | -0.007 ± 0.013 | -0.0075 ± 0.0092 | -0.0035 ± 0.0078 | 0.015 ± 0.0071 | 0.0095 ± 0.018 | 0.017 | -0.0085 ± 0.019 | 0.017 ± 0.0028 | 0 ± 0.014 | -0.027 ± 0.0014 | -0.0015 ± 0.0035 | -0.001 ± 0.0028 | 0.004 ± 0.0014 |
| BT:sIL-2 | 0.002 ± 0.059 | -0.0075 ± 0.035 | 0.033 ± 0.042 | -0.0455 ± 0.11 | 0.031 ± 0.028 | -0.0025 ± 0.042 | -0.002 ± 0.13 | -0.0015 ± 0.032 | 0.016 ± 0.0042 | -0.059 ± 0.031 | 0.0015 ± 0.035 | -0.001 ± 0.027 | 0.017 ± 0.016 | -0.0155 ± 0.071 | 0.017 ± 0.018 | -0.042 ± 0.037 | 0.027 ± 0.12 | 0.014 ± 0.035 | 0.022 ± 0.05 |
| SAg:SRB | -0.0115 ± 0.012 | -0.0195 ± 0.0092 | -0.0195 ± 0.016 | -0.0005 ± 0.0035 | -0.002 ± 0.0028 | 0.0075 ± 0.0021 | -0.0025 ± 0.0078 | -0.0005 ± 0.0021 | -0.0045 ± 0.0064 | -0.019 ± 0.0085 | -0.018 ± 0.0042 | -0.033 ± 0.03 | 0.002 ± 0.0014 | -0.004 ± 0.0014 | 0.008 ± 0.027 | 0.0005 ± 0.0064 | -0.0085 ± 0.0092 | -0.0005 ± 0.0021 | 0.0135 ± 0.0021 |
| 4H:CD87/uPAR | 0.015 ± 0.044 | 0.0265 ± 0.0035 | 0.0065 ± 0.044 | -0.009 ± 0.062 | 0.0005 ± 0.037 | -0.003 ± 0.018 | -0.031 ± 0.044 | -0.0165 ± 0.047 | -0.0045 ± 0.029 | -0.002 ± 0.023 | 0.0065 ± 0.013 | -0.0055 ± 0.022 | -0.0055 ± 0.0021 | -0.0165 ± 0.0021 | 0.0005 ± 0.019 | 0.021 ± 0.042 | 0.0065 ± 0.033 | -0.0125 ± 0.015 | 0.0215 ± 0.0064 |
| SAg:CD40 | -0.003 ± 0.0057 | 0.0095 ± 0.013 | 0.004 ± 0.0042 | -0.005 | -0.001 ± 0.0028 | -0.02 ± 0.035 | 0.013 ± 0.0071 | 0.01 ± 0.0042 | -0.0055 ± 0.019 | 0.001 ± 0.0071 | -0.012 ± 0.0099 | -0.029 ± 0.011 | 0.0105 ± 0.011 | 0.006 ± 0.011 | -0.042 ± 0.04 | -0.0415 ± 0.04 | -0.053 ± 0.065 | 0.0085 ± 0.015 | -0.022 ± 0.0028 |
| BF4T:uPA | -0.0065 ± 0.028 | -0.0065 ± 0.03 | -0.007 ± 0.03 | -0.002 ± 0.0014 | 0.0035 ± 0.00071 | 0.001 ± 0.0042 | -0.009 ± 0.021 | -0.0015 ± 0.012 | 0.0155 ± 0.042 | -0.002 ± 0.027 | -0.007 ± 0.02 | -0.0035 ± 0.037 | -0.031 ± 0.011 | -0.0285 ± 0.039 | -0.0055 ± 0.026 | 0.0015 ± 0.012 | -0.0145 ± 0.005 | -0.0045 ± 0.0064 | -0.0095 ± 0.012 |
| 4H:VEGFR2 | 0.011 ± 0.045 | 0.043 ± 0.044 | 0.0595 ± 0.049 | -0.0075 ± 0.0035 | 0.0045 ± 0.0064 | 0.0235 ± 0.019 | -0.085 ± 0.041 | -0.0895 ± 0.05 | -0.009 ± 0.093 | -0.021 ± 0.037 | -0.0125 ± 0.052 | 0.03 ± 0.038 | -0.0145 ± 0.026 | 0.0405 ± 0.074 | 0.0325 ± 0.013 | 0.0435 ± 0.03 | 0.0495 ± 0.069 | -0.0065 ± 0.056 | 0.053 ± 0.0085 |
